Assay results taken from ChEMBL document CHEMBL4414672, “Synthesis of certain benzothieno[3,2-d]pyrimidine derivatives as a selective SIRT2 inhibitors” (Eur J Med Chem, 2020).

Legend:
Assay type in all cases: functional
OVCAR-8 = assay: Growth inhibition of human OVCAR8 cells at 10^-5 M incubated for 48 hrs by sulforhodamine B assay; details: OVCAR-8, 48 h, read-out: GI
HOP-62 = assay: Growth inhibition of human HOP62 cells at 10^-5 M incubated for 48 hrs by sulforhodamine B assay; details: HOP-62, 48 h, read-out: GI
SK-MEL-2 = assay: Growth inhibition of human SK-MEL-2 cells at 10^-5 M incubated for 48 hrs by sulforhodamine B assay; details: SK-MEL-2, 48 h, read-out: GI
K562 = assay: Growth inhibition of human K562 cells at 10^-5 M incubated for 48 hrs by sulforhodamine B assay; details: K562, 48 h, read-out: GI
SF-268 = assay: Growth inhibition of human SF268 cells at 10^-5 M incubated for 48 hrs by sulforhodamine B assay; details: SF-268, 48 h, read-out: GI
NCI-H460 = assay: Growth inhibition of human NCI-H460 cells at 10^-5 M incubated for 48 hrs by sulforhodamine B assay; details: NCI-H460, 48 h, read-out: GI
M14 = assay: Growth inhibition of human M14 cells at 10^-5 M incubated for 48 hrs by sulforhodamine B assay; details: M14, 48 h, read-out: GI
HL-60(TB) = assay: Growth inhibition of human HL-60(TB) cells at 10^-5 M incubated for 48 hrs by sulforhodamine B assay; details: HL-60, 48 h, read-out: GI
SK-MEL-5 = assay: Growth inhibition of human SK-MEL-5 cells at 10^-5 M incubated for 48 hrs by sulforhodamine B assay; details: SK-MEL-5, 48 h, read-out: GI
HCT-116 = assay: Growth inhibition of human HCT116 cells at 10^-5 M incubated for 48 hrs by sulforhodamine B assay; details: HCT-116, 48 h, read-out: GI
U-251 = assay: Growth inhibition of human U251 cells at 10^-5 M incubated for 48 hrs by sulforhodamine B assay; details: U-251, 48 h, read-out: GI
UO-31 = assay: Growth inhibition of human UO31 cells at 10^-5 M incubated for 48 hrs by sulforhodamine B assay; details: UO-31, 48 h, read-out: GI
RXF 393 = assay: Growth inhibition of human RXF393 cells at 10^-5 M incubated for 48 hrs by sulforhodamine B assay; details: RXF 393, 48 h, read-out: GI
786-0 = assay: Growth inhibition of human 786-0 cells at 10^-5 M incubated for 48 hrs by sulforhodamine B assay; details: 786-0, 48 h, read-out: GI
HOP-92 = assay: Growth inhibition of human HOP92 cells at 10^-5 M incubated for 48 hrs by sulforhodamine B assay; details: HOP-92, 48 h, read-out: GI
NCI/ADR-RES = assay: Growth inhibition of human NCI/ADR-RES cells at 10^-5 M incubated for 48 hrs by sulforhodamine B assay; details: read-out: GI
SK-OV-3 = assay: Growth inhibition of human SKOV3 cells at 10^-5 M incubated for 48 hrs by sulforhodamine B assay; details: SK-OV-3, 48 h, read-out: GI
MDA-MB-231 = assay: Growth inhibition of human MDA-MB-231 cells at 10^-5 M incubated for 48 hrs by sulforhodamine B assay; details: MDA-MB-231, 48 h, read-out: GI
KM12 = assay: Growth inhibition of human KM12 cells at 10^-5 M incubated for 48 hrs by sulforhodamine B assay; details: KM12, 48 h, read-out: GI
NCI-H23 = assay: Growth inhibition of human NCI-H23 cells at 10^-5 M incubated for 48 hrs by sulforhodamine B assay; details: NCI-H23, 48 h, read-out: GI

| SMILES | inhibition of growth at 10 µM (OVCAR-8) | inhibition of growth at 10 µM (HOP-62) | inhibition of growth at 10 µM (SK-MEL-2) | inhibition of growth at 10 µM (K562) | inhibition of growth at 10 µM (SF-268) | inhibition of growth at 10 µM (NCI-H460) | inhibition of growth at 10 µM (M14) | inhibition of growth at 10 µM (HL-60(TB)) | inhibition of growth at 10 µM (SK-MEL-5) | inhibition of growth at 10 µM (HCT-116) | inhibition of growth at 10 µM (U-251) | inhibition of growth at 10 µM (UO-31) | inhibition of growth at 10 µM (RXF 393) | inhibition of growth at 10 µM (786-0) | inhibition of growth at 10 µM (HOP-92) | inhibition of growth at 10 µM (NCI/ADR-RES) | inhibition of growth at 10 µM (SK-OV-3) | inhibition of growth at 10 µM (MDA-MB-231) | inhibition of growth at 10 µM (KM12) | inhibition of growth at 10 µM (NCI-H23) |
| --- | --- | --- | --- | --- | --- | --- | --- | --- | --- | --- | --- | --- | --- | --- | --- | --- | --- | --- | --- | --- |
| S=C1Nc2c(sc3ccc(Cl)cc23)C(c2cccc(Br)c2)N1 (stereo not given) | 3.39% | 15.5% | -6.36% | 1.5% | 1.41% | 7.39% | 6.42% | -6.42% | 3.95% | 10.9% | -7.09% | -18.3% | -7.19% | -0.33% | -3.61% | -3.15% | 10.4% | 9.68% | -2.38% | 12.2% |
| O=C1/C(=C\c2ccccc2O)Sc2ccc(Cl)cc21 | 1.53% | 5.99% | 1.25% | 4.83% | 5.86% | -8.83% | 0.22% | -1.87% | 4.61% | 10% | -8.52% | -16% | -3.05% | -0.39% | 3% | 6.5% | 5.06% | 11% | -0.47% | 11.7% |
| O=C1Nc2c(sc3ccc(Cl)cc23)C(c2cccc(Br)c2)N1 (stereo not given) | -2.63% | 22.2% | -9.69% | 6.28% | 0.19% | -0.32% | 1.96% | 7.88% | 3.66% | 4.12% | -3.91% | -23.4% | -18.1% | -1.2% | 0.42% | 12.2% | 19.7% | 6.83% | -0.31% | 9.39% |
| N=C1Nc2c(sc3ccc(Cl)cc23)C(c2ccccc2O)N1 (stereo not given) | -6.18% | 9.32% | 0.27% | -2.22% | 6.19% | 0.95% | 1.39% | -8.53% | 2.66% | 10.7% | -7.81% | 11.9% | 3.66% | -0.24% | 21.2% | 7.92% | 9.9% | -5.69% | -3.63% | 10.5% |
| O=C1Nc2c(sc3ccc(Cl)cc23)C(c2ccccc2O)N1 (stereo not given) | 3.5% | 13.9% | 2.38% | 14.7% | 7.91% | 6.65% | 2.49% | 1.61% | 4.49% | 4.28% | 4.41% | -18.6% | -4.74% | 1.65% | 21% | 1.65% | 4.45% | 19.7% | -2.4% | 13.5% |
